Literature values, collected in patent US20090196863A1, “METHOD OF ANTIOXIDATION AND ANTIOXIDANT-FUNCTIONING WATER” (MIZ CO., LTD., priority 2001, published 2009).

Conditions: normal temperature (20° C.) and atmospheric pressure

saturated solvent concentration: approximately 1.6 mg/L
SMILES: [HH] [molecular hydrogen]
